# Data as given in patent US20150253330A1, “PRE-SELECTION OF SUBJECTS FOR THERAPEUTIC TREATMENT WITH AN HSP90 INHIBITOR BASED ON HYPOXIC STATUS” (Synta Pharmaceuticals Corp., priority 2012, published 2015).
# Entries after “also recorded” stand apart in the source; their conditions may differ.
# Assays:
# SNU-5 = experiment: 72 hr viability by Syto60, gastric cell line; assay type: cell-based; settings: Homo sapiens, Syto60 (lower), read-out: ganetespib IC50
# [1] = system: HPAC and ASPC-1 xenograft; experiment: In vivo tumor growth delay and angiogenic assay, pancreatic xenografts; parameters: species or system SCID mice; settings: 100 mg/kg IV once a week for three weeks
# Experimental: It's postulated that functional inhibition of Hsp90 by ganetespib can inhibit angiogenesis and growth in vitro and in vivo models of pancreatic cancer. PANC-1 and HPAC cell lines were treated with vehicle or G (50 nM) for 24 h and lysates were analyzed by Western blot. Egg CAM and matrigel plug assays were performed to quantify the effects of ganetespib on angiogenesis. Efficacy of ganetespib (100 mg/kg) was assessed in mice bearing HPAC and ASPC-1 xenograft.
# In vivo tumor growth delay and angiogenic assay: Five-week-old SCID mice were divided into 4 groups with 10 animals in each group. First two groups received 100 μl of Ice cold matrigel medium containing ASPC-1 (1×10^6 cells/100 μl) and other two groups received HPAC cell lines subcutaneously. Once the tumor reached 100-120 mm^3, the groups 2 and 4 received ganetespib (100 mg/kg body weight) IV once a week for three weeks. […] Every other day, tumor was measured using vernier caliper scale for a total of five weeks, when the animals were sacrificed. Skin around the implanted matrigel tumor was removed carefully and the tumor with its surrounding was photographed under visible light.
# solid tumors = experiment: Phase I dose escalation study, twice-weekly administration in patients with solid tumors; assay type: in vivo, human
# Experimental: An open-label Phase 1 dose-escalation study in subjects with solid tumors was performed. The first cohort consisted of three subjects who received 2 mg/m^2 of ganetespib during a 1-hour infusion 2 times per week (e.g., [Monday, Thursday] or [Tuesday, Friday]) for three consecutive weeks followed by a 1 week dose-free interval. The first infusion for the first three subjects was staggered by a minimum of 5 days between subjects. This staggered enrollment scheme was followed for the first cohort only. Subjects tolerating ganetespib continued treatment past week 8 until disease progression as long as the re-treatment criteria continued to be met.
# Subsequent cohorts were originally planned to receive escalating doses of 4, 7, 10, 14, 19, 25, 33, 40, and 48 mg/m^2, provided that the previous dose was well-tolerated during cycle 1 (week 1-4). The dose escalation scheme was updated to 25, 50, 75 and 100 mg/m^2, provided that the previous dose was well-tolerated during cycle 1. Following the completion of enrollment at 50 mg/m^2 twice per week, subsequent cohorts were to be treated at 100 mg/m^2 (100% increase above prior dose) and 120 mg/m^2 (20% increase above prior dose), with further dose increments to be approximately 20% over the previous dose level, until the maximum tolerated dose (MTD) was determined. Enrollment was completed at 100 mg/m^2 and the next doses planned were 120 mg/m^2 and 144 mg/m^2.
# There had to be at least three evaluable subjects in a cohort before dose escalation could occur. […] Once a subject experienced a DLT the cohort was expanded to six subjects. If only 1 of 6 subjects experienced a DLT, further dose escalation was allowed. However, if 2 of 3 or 2 of 6 subjects experienced a DLT, dose escalation terminated.
# A subject's duration of participation included a 2-week screening period and two 4-week treatment cycles totaling approximately 10 weeks. However, at the investigator's discretion, subjects tolerating ganetespib continued treatment past week 8 until disease progression.
# The subjects in this study had histologically- or cytologically-confirmed non-hematological malignancy that was metastatic or unresectable. The subjects were documented to be refractory to, or were not candidates for, current standard therapy.
# Ganetespib was formulated using 90% v/v PEG 300 and 10% v/v Polysorbate 80 at a concentration of 8 mg/mL and was packaged in a Type I glass amber vial, stoppered with a Flurotec-coated stopper, and sealed. […] The formulation was further diluted with 5% dextrose for injection in infusion container (DEHP-free 500 mL) to a concentration range of 0.02 to 1.2 mg/mL and administered via infusion tubing (DEHP-free) with a 0.22 micron end filter over an hour to the patient. The dosing solution once prepared was administered within 3 hours. Eligible subjects received the drug during a 1-hour infusion 2 times per week for 3 consecutive weeks followed by a 1-week dose-free interval. The amount of ganetespib administered depended upon the cohort to which the subject was assigned and the subject's body surface area (BSA).
# A person with triple negative breast cancer (with Stage III invasive ductal carcinoma) from Example 1 enrolled in a Phase I dose escalation study of ganetespib. The patient's disease had progressed on 7 prior chemotherapeutic regimens. The patient was administered 144 mg/m^2 of ganetespib twice-weekly for 3 weeks, followed by 1 week dose-free. […] After 4 cycles, there was a documented 31% reduction in target lesion size (partial response). The treatment was interrupted due to brain metastases treated with whole brain radiation, but treatment with ganetespib resumed in cycle 5.
# [2] = system: EGFR and other client proteins; experiment: Western blot of Hsp90 client proteins in Detroit 562 cells, 24 hr; assay type: cell-based; settings: Detroit 562, 24 hr
# Description: Head and neck (H/N) cancer refers to a group of biologically similar cancers originating from the upper autodigestive tract. First line therapies include EGFR inhibitors and platins. Modulation of EGFR and other client proteins by ganetespib was investigated in Detroit 562 H/N cancer cells.
# [3] = system: BT-474 breast cancer cells grown as mammospheres; experiment: Viability of mammospheres in Matrigel, 72 hr, AlamarBlue; assay type: cell-based; settings: Homo sapiens, BT-474 mammospheres in Matrigel
# Experimental: The cells were treated for 72 hr and analyzed by microscopy. IC50 was determined by AlamarBlue®.
# BT-474 HER2+ luminal cells were cultured as mammospheres in Matrigel® and exposed to ganetespib for 72 hr.
# ECC12 = experiment: 72 hr viability by Syto60, gastric cell line; assay type: cell-based; settings: Homo sapiens, Syto60 (lower), read-out: ganetespib IC50
# advanced GIST = experiment: Phase 2 study in gastrointestinal stromal tumors (GIST); assay type: in vivo, human
# Experimental: Patients with advanced (e.g., metastatic or unresectable) GIST following failure of prior therapy, e.g., imatinib or sunitinib, received ganetespib (200 mg/m^2) as a 1 hour IV infusion once per week for 3 weeks of a 28 day cycle. GIST status was assessed at 8 weeks per RECIST, until progression. […] Hsp90 client protein levels were analyzed in biopsies pre-therapy and 24-48 h post-treatment with ganetespib in a subset of patients.
# [4] = human pancreatic tumor xenografts
# [5] = 41 of 54 enrolled patients assessable for response
# [6] = one TNBC patient, 144 mg/m^2 twice-weekly for 3 weeks, 1 week dose-free
compound,measurement,setting,value
CC(C)c1cc(-c2nnc(O)n2-c2ccc3c(ccn3C)c2)c(O)cc1O [ganetespib],IC50,SNU-5,31 nM
same,Angiogenesis in vivo,[1]; [4],inhibition of angiogenesis in vivo; also recorded: decreases angiogenesis
same,Tumor growth,[1]; [4],significant tumor growth delay; also recorded: significantly inhibits tumor growth
same,Deaths from the treatment,[1]; SCID mice,None of the animals died
same,"Confirmed partial responses, patient with melanoma",solid tumors; [5],1 patient
same,"Confirmed partial responses, patient with triple negative breast cancer",solid tumors; [5],1 patient
same,Patients who achieved stable disease,solid tumors; [5],15 patients
same,Tolerability,"solid tumors; one TNBC patient, 144 mg/m^2 twice-weekly",tolerated the treatment well with mild/moderate toxicities
same,Reduction in target lesion size after 4 cycles (partial response),solid tumors; [6],31%
same,Response per RECIST after 2 cycles,solid tumors; [6],stable disease
same,Modulation of EGFR and other client proteins,[2],depletion of EGFR and JAK2
same,IC50,[3],20 nM
same,IC50,ECC12,12 nM
same,Adverse events reported in >20% of patients,"advanced GIST; 200 mg/m^2 once per week for 3 weeks of a 28 day cycle, generally NCI CTC grade 1-2","diarrhea, fatigue, nausea, vomiting, increased alkaline phosphatase, headache, insomnia, and abdominal pain"
same,Evaluable patients with SD,"advanced GIST; 4 SD 16 weeks, 8 SD≧8 weeks",12/23
same,Client proteins in paired tumor biopsies,"advanced GIST; biopsies from 4 patients, pre-therapy and 24-48 h post-treatment",did not show prolonged inhibition of activated KIT or its downstream pathways
same,Tolerability,"advanced GIST; once-weekly dosing, no evidence of severe liver, ocular, cardiac or renal toxicity",well-tolerated
